One assay deals with L929 cells. In words: L929 cell necroptosis assay (TNFa + zVAD, CellTiter-Glo). The assay is classed as cell-based, murine. Conditions: Mus musculus. As to the method: (§1) In this example, U937 and L929 cells were exposed to compounds of the present disclosure and a cell necroptosis assay was conducted to evaluate the compounds' activity against human RIP1 and murine RIP1.
U937 and L929 cells were obtained from the American Type Culture Collection (Manassa, Va., USA). Both cells were maintained in logarithmic growth phase in complete RPMI 1640 media (Sigma, ST Louis, Mo., USA) supplemented with 10% fetal bovine serum (Sigma, ST Louis, Mo., USA) at 37° C. with 5% CO2. For necroptosis assay, L929 cells were plated for 18 h in 100 μL/well medium at 10K cells/well in Costar 96-well black clear-bottom plates (Fisher Scientific, Hampton, N.H., USA); U937 cells were plated on the day of the assay in 50 4/well medium containing 60 uM zVAD-fink (Lonza, Basel, Switzerland) at 50K cells/well. Medium from L929 cells were removed from the 96-well plates and replaced with 50 μL/well new medium containing 40 uM zVAD-fink. Each compound of the present disclosure evaluated in this example was serially diluted in DMSO from 2.5 mM in 4-fold dilutions, and then diluted 1:125 in complete medium. 50 μL/well 2× of the compound was then added to the cells in the plates. […] The relative amount of necroptosis cells was determined by luminescent using a Wallac Victor2 Luminometer (PerkinElmer, Waltham, Mass., USA) and a CellTiter-Glo® Luminescent Cell Viability Reagent Assay (Promega, Madison, Wis., USA) added per manufacturer instructions after 18 hours of TNFa stimulation at 37° C. with 5% CO2.

The next assay has as its system U937 cells. The assay is described as follows: U937 cell necroptosis assay (TNFa + zVAD, CellTiter-Glo). The settings on record: Homo sapiens. The assay is classed as cell-based, human. As to the method:
as §1
U937 and L929 cells were obtained from the American Type Culture Collection (Manassa, Va., USA). Both cells were maintained in logarithmic growth phase in complete RPMI 1640 media (Sigma, ST Louis, Mo., USA) supplemented with 10% fetal bovine serum (Sigma, ST Louis, Mo., USA) at 37° C. with 5% CO2. For necroptosis assay, L929 cells were plated for 18 h in 100 μL/well medium at 10K cells/well in Costar 96-well black clear-bottom plates (Fisher Scientific, Hampton, N.H., USA); U937 cells were plated on the day of the assay in 50 4/well medium containing 60 uM zVAD-fink (Lonza, Basel, Switzerland) at 50K cells/well. Medium from L929 cells were removed from the 96-well plates and replaced with 50 μL/well new medium containing 40 uM zVAD-fink. Each compound of the present disclosure evaluated in this example was serially diluted in DMSO from 2.5 mM in 4-fold dilutions, and then diluted 1:125 in complete medium. 50 μL/well 2× of the compound was then added to the cells in the plates. The cells were pre-incubated with the compound for 1 hour at 37° C. with 5% CO2 and before addition of 10 μL/well 1 1×TNFa (Peprotech, Rocky Hill, N.J., USA) to give a final concentration of 2 ng/mL for TNFa. The relative amount of necroptosis cells was determined by luminescent using a Wallac Victor2 Luminometer (PerkinElmer, Waltham, Mass., USA) and a CellTiter-Glo® Luminescent Cell Viability Reagent Assay (Promega, Madison, Wis., USA) added per manufacturer instructions after 18 hours of TNFa stimulation at 37° C. with 5% CO2. This example establishes that embodiments of the compounds described herein have unexpectedly potent activity against human RIP1 and murine RIP1, which allows their assessment in in vivo mouse models of disease.

[1] abbreviates: L929, L929 cells, TNFa + zVAD, read-out: L929-CTG-recovery, L929, TNFa + zVAD (IC50).
Setting [2] is: U-937, U937 cells, TNFa + zVAD, read-out: U937 Zvad TNF CTG Recovery, U937, TNFa + zVAD (IC50).

pIC50: −log10 of the molar value. Read-outs that look alike come from different tables or passages of the source.

As to `CN1C(=O)[C@@H](NC(=O)c2cc(Oc3ccccc3)ccn2)COc2ccc(C#CC3(O)CN(CC4CC4)C3)cc21` [Compound I-196, (S)—N-(7-((1-(cyclopropylmethyl)-3-hydroxyazetidin-3-yl)ethynyl)-5-methyl-4-oxo-2,3,4,5-tetrahydrobenzo[b][1,4]oxazepin-3-yl)-4-phenoxypicolinamide], the pIC50 with L929 cells (setting [1]) is 6.70; with U937 cells (setting [2]), 8.48.
For the compound `C[C@H](N)C(=O)OCC(C)(C)C#Cc1ccc2c(c1)N(C)C(=O)[C@@H](NC(=O)c1cc(Oc3ccc(F)cc3)ccn1)CO2` [Compound I-171, 4-((S)-3-(4-(4-fluorophenoxy)picolinamido)-5-methyl-4-oxo-2,3,4,5-tetrahydrobenzo[b][1,4]oxazepin-7-yl)-2,2-dimethylbut-3-yn-1-yl L-alaninate], the pIC50 in the assay with L929 cells (setting [1]) was 6.40; with U937 cells (setting [2]) it was 8.19.
In the case of `CC(=O)N1CC(O)(C#Cc2ccc3c(c2)N(C)C(=O)[C@@H](NC(=O)c2cc(Oc4ccccc4)ccn2)CO3)C1` [Compound I-197, (S)—N-(7-((1-acetyl-3-hydroxyazetidin-3-yl)ethynyl)-5-methyl-4-oxo-2,3,4,5-tetrahydrobenzo[b][1,4]oxazepin-3-yl)-4-phenoxypicolinamide], the results for the pIC50 with L929 cells (setting [1]) and with U937 cells (setting [2]) were 7.15 and 9.15, respectively.
In the case of `CN1C(=O)[C@@H](NC(=O)c2cc(Oc3ccccc3)ccn2)COc2ccc(C#CC3(O)COC3)cc21` [Compound I-110, (S)—N-(7-((3-hydroxyoxetan-3-yl)ethynyl)-5-methyl-4-oxo-2,3,4,5-tetrahydrobenzo[b][1,4]oxazepin-3-yl)-4-phenoxypicolinamide], the values for the negative logarithm of the IC50 (pIC50) with L929 cells (setting [1]) and in the assay on U937 cells (setting [2]) were 7.73 and 9.40, respectively.
As to `CN1C(=O)[C@@H](NC(=O)c2cc(Oc3ccccc3)ccn2)COc2ccc(C#CC(C)(C)N3CCS(=O)(=O)CC3)cc21` [Compound I-211, (S)—N-(7-(3-(1,1-Dioxidothiomorpholino)-3-methylbut-1-yn-1-yl)-5-methyl-4-oxo-2,3,4,5-tetrahydrobenzo[b][1,4]oxazepin-3-yl)-4-phenoxypicolinamide], the results for the pIC50 in the assay with L929 cells (setting [1]) and in the assay on U937 cells (setting [2]) were 7.35 and 8.96, respectively.
With `CC(C)N1CC(F)(C#Cc2ccc3c(c2)N(C)C(=O)[C@@H](NC(=O)c2cc(Oc4ccccc4)ccn2)CO3)C1` [Compound I-166, (S)—N-(7-((3-fluoro-1-isopropylazetidin-3-yl)ethynyl)-5-methyl-4-oxo-2,3,4,5-tetrahydrobenzo[b][1,4]oxazepin-3-yl)-4-phenoxypicolinamide], the negative logarithm of the IC50 (pIC50) in the assay with L929 cells (setting [1]) is 7.56; in the assay on U937 cells (setting [2]), 9.00.
As to `CN1C(=O)[C@@H](NC(=O)c2cc(Oc3ccccc3)ccn2)COc2ccc(C#CC(C)(C)COP(=O)(O)O)cc21` [Compound I-173, (S)-2,2-dimethyl-4-(5-methyl-4-oxo-3-(4-phenoxypicolinamido)-2,3,4,5-tetrahydrobenzo[b][1,4]oxazepin-7-yl)but-3-yn-1-yl dihydrogen phosphate], the results for the pIC50 with L929 cells (setting [1]) and in the assay with U937 cells (setting [2]) were 5.54 and 7.31, respectively.
With `CN1C(=O)[C@@H](NC(=O)c2cc(Oc3ccccc3)ccn2)COc2ccc(C#CC3(F)CN(CC(F)(F)F)C3)cc21` [Compound I-168, (S)—N-(7-((3-fluoro-1-(2,2,2-trifluoroethyl)azetidin-3-yl)ethynyl)-5-methyl-4-oxo-2,3,4,5-tetrahydrobenzo[b][1,4]oxazepin-3-yl)-4-phenoxypicolinamide], the pIC50 is 6.99 in the assay with L929 cells (setting [1]) and 9.05 with U937 cells (setting [2]).
Turning to `CN1C(=O)[C@@H](NC(=O)c2n[nH]c(Cc3ccccc3)n2)COc2ccc(/C=C(\Cl)C(C)(C)O)cc21` [Compound I-94, (S,Z)-5-benzyl-N-(7-(2-chloro-3-hydroxy-3-methylbut-1-en-1-yl)-5-methyl-4-oxo-2,3,4,5-tetrahydrobenzo[b][1,4]oxazepin-3-yl)-1H-1,2,4-triazole-3-carboxamide], the pIC50 in the assay with L929 cells (L929 cells, TNFa + zVAD, read-out: L929-CTG-recovery, L929, TNFa + zVAD (IC50)) was 8.34; in the assay with U937 cells (setting [2]), 7.66.
In the case of `[2H]C([2H])([2H])C(O)(C#Cc1ccc2c(c1)N(C)C(=O)[C@@H](NC(=O)c1n[nH]c(Cc3ccccc3)n1)CO2)C([2H])([2H])[2H]` [Compound I-69, (S)-5-benzyl-N-(7-(3-hydroxy-3-(methyl-d3)but-1-yn-1-yl-4,4,4-d3)-5-methyl-4-oxo-2,3,4,5-tetrahydrobenzo[b][1,4]oxazepin-3-yl)-1H-1,2,4-triazole-3-carboxamide], the pIC50 is 9.05 in the assay on L929 cells (setting [1]) and 8.66 in the assay on U937 cells (setting [2]).
As to `CN1C(=O)[C@@H](NC(=O)c2cc(Oc3ccccc3)ccn2)COc2ccc(C#CC3(F)CN(CC4CC4)C3)cc21` [Compound I-169, (S)—N-(7-((1-(cyclopropylmethyl)-3-fluoroazetidin-3-yl)ethynyl)-5-methyl-4-oxo-2,3,4,5-tetrahydrobenzo[b][1,4]oxazepin-3-yl)-4-phenoxypicolinamide], the results for the pIC50 with L929 cells (setting [1]) and with U937 cells (setting [2]) were 6.83 and 8.66, respectively.
The like results for `[2H]C([2H])([2H])C(O)(C#Cc1ccc2c(c1)N(C)C(=O)[C@@H](NC(=O)c1cc(Oc3ccccc3)ccn1)CO2)C([2H])([2H])[2H]` [Compound I-68, (S)—N-(7-(3-hydroxy-3-(methyl-d3)but-1-yn-1-yl-4,4,4-d3)-5-methyl-4-oxo-2,3,4,5-tetrahydrobenzo[b][1,4]oxazepin-3-yl)-4-phenoxypicolinamide] were, in that order, 9.52 and 9.15.
On the same counts, the results for `CCNC(=O)N1CC(O)(C#Cc2ccc3c(c2)N(C)C(=O)[C@@H](NC(=O)c2cc(Oc4ccccc4)ccn2)CO3)C1` [Compound I-198, (S)—N-(7-((1-(ethylcarbamoyl)-3-hydroxyazetidin-3-yl)ethynyl)-5-methyl-4-oxo-2,3,4,5-tetrahydrobenzo[b][1,4]oxazepin-3-yl)-4-phenoxypicolinamide] are 7.41 and 9.05.
For `CC(C)[C@H](N)C(=O)OCC(C)(C)C#Cc1ccc2c(c1)N(C)C(=O)[C@@H](NC(=O)c1cc(Oc3ccc(F)cc3)ccn1)CO2` [Compound I-172, 4-((S)-3-(4-(4-fluorophenoxy)picolinamido)-5-methyl-4-oxo-2,3,4,5-tetrahydrobenzo[b][1,4]oxazepin-7-yl)-2,2-dimethylbut-3-yn-1-yl L-valinate], the pIC50 was 6.07 in the assay on L929 cells (setting [1]) and 7.66 in the assay on U937 cells (setting [2]).
`CN1C(=O)[C@@H](NC(=O)c2cc(Oc3ccccc3)ccn2)COc2ccc(C#CC3(F)CNC3)cc21` [Compound I-143]: the pIC50 is 6.70 in the assay with L929 cells (L929, read-out: L929-CTG-recovery, L929, TNFa + zVAD (IC50), L929 cells, TNFa + zVAD) and 8.46 in the assay on U937 cells (U-937, read-out: U937 Zvad TNF CTG Recovery, U937, TNFa + zVAD (IC50), U937 cells, TNFa + zVAD).
On to `CN1C(=O)[C@H](NC(=O)c2cc(Oc3ccccc3)ccn2)COc2ccc(C#CC(C)(C)O)cc21` [Compound I-113, (R)—N-(7-(3-hydroxy-3-methylbut-1-yn-1-yl)-5-methyl-4-oxo-2,3,4,5-tetrahydrobenzo[b][1,4]oxazepin-3-yl)-4-phenoxypicolinamide], for which the negative-log IC50 (pIC50) is 5.63 with L929 cells (setting [1]) and 7.50 with U937 cells (setting [2]).
Take `[2H]c1c([2H])c([2H])c(Oc2ccnc(C(=O)N[C@H]3COc4ccc(C#CC5(O)COC5)cc4N(C)C3=O)c2)c([2H])c1[2H]` [Compound I-190, (S)—N-(7-((3-hydroxyoxetan-3-yl)ethynyl)-5-methyl-4-oxo-2,3,4,5-tetrahydrobenzo[b][1,4]oxazepin-3-yl)-4-(phenoxy-d5)picolinamide]: in the assay with U937 cells (setting [2]), the pIC50 was 9.22.

Values taken from patent US11407736B2 (priority 2019, dated 2022).
